A short description of series [1]: inhibition of exploration (Planche-a-Trous situation). The conditions noted are these: mouse, oral, suspension in olive oil or gum arabic; 50% decrease of exploration. The class given is in vivo, Mouse (albino, NMRI). The protocol:
(§1) Those compounds of the formula I wherein R is methyl, ethyl and isopropyl and the structurally most closely related compound disclosed in the prior art, namely 1-[4-(4-fluorophenyl)-4-oxobutyl]-4-benzamidopiperidine disclosed in British patent specification No. 1,345,872, were tested for adrenaline-antagonistic activity, inhibition of locomotion, inhibition of exploration and toxicity by standard pharmacological test methods, and in each case the median effective dose (ED50) or the median lethal dose (LD50), respectively, were calculated graphically from dose-activity graphs. Albino mice (NMRI) having a body weight of 20-25 gm were used as the test animals, 10 animals per dose and untreated controls. The test compounds were administered orally in suspension in olive oil or gum arabic.
2. The inhibiting effect on exploration was determined by the method of J.R. Borssin et al, Therapie 19, 571 (1964). The ED50 is the dose which produces a 50% decrease of exploration in the Planche-a-Trous situation.

A short description of series [2]: inhibition of locomotion (open field test). The class given is in vivo, Mouse (albino, NMRI). The conditions noted are these: mouse, oral, suspension in olive oil or gum arabic; 50% attenuation of locomotion. The protocol:
as §1
3. The inhibiting effect on locomotion was determined by the method of P.A.J. Janssen et al, Psychopharmacologia 1, 389 (1960). The ED50 is the dose which produces a 50% attenuation of locomotion in the open field test.

For series [3], the system named is adrenaline (epinephrine). The experiment in a line: adrenaline-antagonistic activity (protection against a lethal dose of adrenaline). Particulars: mouse, oral, suspension in olive oil or gum arabic; 50% protection against lethal dose of adrenaline; read-out: Adrenaline-antagonism (ED50). The class given is in vivo, Mouse (albino, NMRI). The protocol:
as §1
1. The adrenaline-antagonistic activity was determined by the method of P.A.J. Janssen et al, Arzneimittelforschung (Drug Research) 13, 203 (1963). […] The ED50 is the dose which produces a 50% protection against a lethal dose of adrenaline (epinephrine).

Series [4] can be described thus: toxicity (24 hours observation). The conditions noted are these: in vivo, mouse, oral, suspension in olive oil or gum arabic. The protocol:
as §1
4. The toxicity was determined over an observation period of 24 hours. The LD50 was calculated by the method J.T. Litchfield and F. Wilcoxon, J. Pharm. Exp. Ther. 96, 99 (1949).

Take `CC(C)C(=O)NC1CCN(CCCC(=O)c2ccc(F)cc2)CC1` [Example 4, N-[3'-(p-fluoro-benzoyl)-n-propyl]-4-(isobutyryl-amino) -piperidine]: the results for the ED50 in series [1], in series [2] and in series [3] were 9 mg/kg, 10 mg/kg and 0.58 mg/kg, respectively. In series [4], this compound displayed a median lethal dose (LD50) at 24 h of 1850 mg/kg.
For `O=C(CCCN1CCC(NC(=O)c2ccccc2)CC1)c1ccc(F)cc1` [C6 H5, 1-[4-(4-fluorophenyl)-4-oxobutyl]-4-benzamidopiperidine, reference compound], in that order: 45 mg/kg, 135 mg/kg, 3.3 mg/kg and 300 mg/kg.
As for `CC(=O)NC1CCN(CCCC(=O)c2ccc(F)cc2)CC1` [Example 1], the ED50 is 8 mg/kg in series [1], 4 mg/kg in series [2] and 0.06 mg/kg in series [3]. This compound had an LD50 at 24 h in series [4] of 1050 mg/kg.
Consider `CCC(=O)NC1CCN(CCCC(=O)c2ccc(F)cc2)CC1` [Example 2, N-[3'-(p-fluoro-benzoyl)-n-propyl]-4-(propionyl-amino) -piperidine], for which the ED50 was 4.4 mg/kg in series [1], 6 mg/kg in series [2] and 0.1 mg/kg in series [3]. Also, the LD50 at 24 h in series [4] worked out at 1160 mg/kg.

The values above are taken from patent publication US4069331A, “N-(p-fluorobenzoyl-n-propyl)-4-piperidylamides and salts thereof” (Boehringer Ingelheim GmbH, priority 1974, dated 1978).
